Experiment [1] has as its target T1, BRD4-BD1 (Homo sapiens, UniProt O60885).
T1 construct: made in house; host or cells: T7 phage grown in an E. coli host derived from the BL21 strain
Nature of the experiment: bromoKdELECT assay for binding affinity to BRD4-BD1. The conditions noted are these: binding to BRD4-BD1, Table 4. As for the experimental part: (§1) Compounds were tested using a bromoKdELECT assay. T7 phage strains displaying bromodomains were grown in parallel in 24-well blocks in an E. coli host derived from the BL21 strain. E. coli were grown to log-phase and infected with T7 phage from a frozen stock (multiplicity of infection=0.4) and incubated with shaking at 32° C. until lysis (90-150 minutes). The lysates were centrifuged (5,000×g) and filtered (0.2 μm) to remove cell debris. Streptavidin-coated magnetic beads were treated with biotinylated small molecule or acetylated peptide ligands for 30 minutes at room temperature to generate affinity resins for bromodomain assays. The liganded beads were blocked with excess biotin and washed with blocking buffer (SeaBlock (Pierce), 1% BSA, 0.05% Tween 20, 1 mM DTT) to remove unbound ligand and to reduce nonspecific phage binding. Binding reactions were assembled by combining bromodomains, liganded affinity beads, and test compounds in 1× binding buffer (17% SeaBlock, 0.33×PBS, 0.04% Tween 20, 0.02% BSA, 0.004% Sodium azide, 7.4 mM DTT). Test compounds were prepared as 1000× stocks in 100% DMSO. Kds were determined using an 11-point 3-fold compound dilution series with one DMSO control point. All compounds for Kd measurements are distributed by acoustic transfer (non-contact dispensing) in 100% DMSO. The compounds were then diluted directly into the assays such that the final concentration of DMSO was 0.09%. All reactions performed in polypropylene 384-well plates. Each was a final volume of 0.02 ml. The assay plates were incubated at room temperature with shaking for 1 hour and the affinity beads were washed with wash buffer (1×PBS, 0.05% Tween 20). The beads were then resuspended in elution buffer (1×PBS, 0.05% Tween […] non-biotinylated affinity ligand) and incubated at room temperature with shaking for 30 minutes. The bromodomain concentration in the eluates was measured by qPCR.

Experiment [2] concerns T-Rex 293 cell line SC3 cells having increased expression of androgen receptor protein due to exposure to doxycycline. Put plainly: Cellular growth inhibition assay, T-Rex 293 SC3 cells with doxycycline (CellTiter-Glo, 72 hours). It counts as cell-based. The settings on record: 72 h, T-Rex 293 SC3 cells with increased androgen receptor expression due to doxycycline (10 ng/mL). The method in brief:
(§2)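 Doxycycline (10 ng/mL) was either included or omitted to toggle wild-type androgen receptor expression in SC3 cells, a T-Rex 293 clone, grown in stripped-serum, phenol red-free medium. After 72 hours with compound, viable cells were quantified by CellTiter-Glo 2.0.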
(In ATP-based viability assays light output follows the ATP content of the culture.)

In experiment [3] the test system is VCaP cells. Put plainly: Cellular growth inhibition assay for VCaP cells (CellTiter-Glo, 72 hours). It counts as cell-based, human. The conditions noted are these: Homo sapiens, VCaP, 72 h. The method, boiled down: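 Luminescent viability signal after 72 h of compound exposure gave GI50 values by four-parameter nonlinear regression. Compounds were added in 0.5% DMSO to cells plated 24 h earlier at 5000/well in DMEM containing 10% FBS.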

In experiment [4] the test system is T-Rex 293 cell line SC3 cells lacking increased expression of androgen receptor protein. Nature of the experiment: Cellular growth inhibition assay, T-Rex 293 SC3 cells without doxycycline (CellTiter-Glo, 72 hours). The settings on record: T-Rex 293 cell line SC3 cells not exposed to doxycycline (lacking increased androgen receptor expression). It counts as cell-based. The method in brief:
as §2

In experiment [5] the target is T2, BRD4-BD2 (Homo sapiens, UniProt O60885).
T2 construct: made in house; host or cells: T7 phage grown in an E. coli host derived from the BL21 strain
Nature of the experiment: bromoKdELECT assay for binding affinity to BRD4-BD2. The conditions noted are these: binding to BRD4-BD2, Table 5. The method, then:
as §1, with “[…])” for “μm)”

As usually defined, the Kd is the free concentration of one partner at which half of the binding sites on the other are occupied at equilibrium, for simple one-to-one binding. The low end stands for higher affinity, the high end for lower affinity. As a reminder, the GI50 is the concentration giving 50% growth inhibition. A high value points to lower sensitivity of the cells. Compound `Cc1sc2c(c1C)C(c1ccc(Cl)cc1)=N[C@@H](CC(=O)NCCOCCOCCOCCOCCOC1CCN(c3ccc(C(=O)N[C@H]4CC[C@H](Oc5ccc(C#N)c(Cl)c5)CC4)nn3)CC1)c1nnc(C)n1-2` [I-3, N-[4-(3-chloro-4-cyano-phenoxy)cyclohexyl]-6-[4-[2-[2-[2-[2-[2-[[2-[7-(4-chlorophenyl)-4,5,13-trimethyl-3-thia-1,8,11,12-tetrazatricyclo[8.3.0.0^2,6]trideca-2(6),4,7,10,12-pentaen-9-yl]acetyl]amino]ethoxy]ethoxy]ethoxy]ethoxy]ethoxy]-1-piperidyl]pyridazine-3-carboxamide] returned a dissociation constant (Kd) in experiment [1] of less than 50 nM. Also, the GI50 in experiment [2] was less than 500 nM; in experiment [3], less than 500 nM; in experiment [4] (72 h) it was 1500 to 3000 nM.
`CCNC(=O)C[C@@H]1N=C(c2ccc(CCCC3CCN(c4ccc(C(=O)N[C@H]5CC[C@H](Oc6ccc(C#N)c(Cl)c6)CC5)nn4)CC3)cc2)c2c(sc(C)c2C)-n2c(C)nnc21` [I-51]: the Kd was less than 50 nM in experiment [5] and 50 to 500 nM in experiment [1]. In addition, the GI50 is less than 500 nM in experiment [2] and 500 to 1500 nM in experiment [4].

The values above are taken from patent US20260109707A1, “HETEROBIFUNCTIONAL COMPOUNDS AND METHODS OF TREATING DISEASE” (Halda Therapeutics OpCo. Inc., priority 2022, published 2026).
